How the values were obtained:
Septoria tritici = assay: In vivo preventive test on Septoria tritici (wheat); conditions: preventive spray, 500 ppm of active ingredient, grading 24 days after contamination
Procedure: Wheat plants (“Scipion” variety), sown in starter cups on a 50/50 peat soil pozzolana substrate and grown at 22° C., are treated at the 1 leaf stage (10 cm height) by spraying with the active ingredient prepared as described above. Plants, used as controls, are treated with the mixture of acetone/tween/DMSO/water not containing the active material. After 24 hours, the plants are contaminated by spraying the leaves with an aqueous suspension of cryopreserved Septoria tritici spores (500 000 spores per mL). The contaminated wheat plants are incubated for 72 hours at 18° C. and at 100% relative humidity, and then for 21 days at 90% relative humidity. Grading (% of efficacy) is carried out 24 days after the contamination, in comparison with the control plants.

Sphaerotheca fuliginea = assay: In vivo preventive test on Sphaerotheca fuliginea (powdery mildew on cucurbits); conditions: gherkin plants, preventive spray, 500 ppm of active ingredient, grading 12 days after contamination
Procedure: Gherkin plants (“Vert petit de Paris” variety), sown in starter cups on a 50/50 peat soil-pozzolana substrate and grown at 24° C., are treated at the Z11 cotyledon stage by spraying with the active ingredient prepared as described above. Plants, used as controls, are treated with the mixture of acetone/tween/DMSO/water not containing the active material. After 24 hours, the plants are contaminated by spraying the cotyledons with an aqueous suspension of Sphaerotheca fuliginea spores (100 000 spores per mL). The spores are collected from infected plants. The contaminated gherkin plants are incubated at about 20° C. and at 70-80% relative humidity. Grading (% of efficacy) is carried out 12 days after the contamination, in comparison with the control plants.

Puccinia recondita = assay: In vivo preventive test on Puccinia recondita (brown rust on wheat); conditions: preventive spray, 500 ppm of active ingredient, grading 12 days after contamination
Procedure: Wheat plants (“Scipion” variety), sown in starter cups on a 50/50 peat soil pozzolana substrate and grown at 22° C., are treated at the 1 leaf stage (10 cm height) by spraying with the active ingredient prepared as described above. Plants, used as controls, are treated with the mixture of acetone/tween/DMSO/water not containing the active material. After 24 hours, the plants are contaminated by spraying the leaves with an aqueous suspension of Puccinia recondita spores (100 000 spores per mL). The spores are collected from an infected plant and are suspended in water containing 2.5 mL/L of Tween 80 at 10%. The contaminated wheat plants are incubated for 24 hours at 20° C. and at 100% relative humidity, and then for 10 days at 20° C. and at 70-80% relative humidity. Grading (% of efficacy) is carried out 12 days after the contamination, in comparison with the control plants.

Uromyces appendiculatus = assay: In vivo preventive test on Uromyces appendiculatus (bean rust); conditions: bean plants, preventive spray, 500 ppm of active ingredient, grading 11 days after contamination
Procedure: Bean plants (“Saxa” variety), sown in starter cups on a 50/50 peat soil pozzolana substrate and grown at 24° C., are treated at the 2 leaf stage (9 cm height) by spraying with the active ingredient prepared as described above. Plants, used as controls, are treated with the mixture of acetone/tween/DMSO/water not containing the active material. After 24 hours, the plants are contaminated by spraying the leaves with an aqueous suspension of Uromyces appendiculatus spores (150 000 spores per mL). The spores are collected from infected plants and are suspended in water containing 2.5 mL/L of Tween 80 at 10%. The contaminated bean plants are incubated for 24 hours at 20° C. and at 100% relative humidity, and then for 10 days at 20° C. and at 70-80% relative humidity. Grading (% of efficacy) is carried out 11 days after the contamination, in comparison with the control plants.

[1] = log P by HPLC on reversed-phase column (C 18), EEC Directive 79/831 Annex V.A8; format: physicochemical; conditions: 40° C., 0.1% aqueous formic acid and acetonitrile, linear gradient 10% to 90% acetonitrile
Procedure: In table 1, the log P values were determined in accordance with EEC Directive 79/831 Annex V.A8 by HPLC (High Performance Liquid Chromatography) on a reversed-phase column (C 18), using the method described below:
Temperature: 40° C.; Mobile phases: 0.1% aqueous formic acid and acetonitrile; linear gradient from 10% acetonitrile to 90% acetonitrile.
Calibration was carried out using unbranched alkan-2-ones (comprising 3 to 16 carbon atoms) with known log P values (determination of the log P values by the retention times using linear interpolation between two successive alkanones). lambda-max-values were determined using UV-spectra from 200 nm to 400 nm and the peak values of the chromatographic signals.

Leptosphaeria nodorum = assay: In vivo preventive test on Leptosphaeria nodorum (wheat); conditions: preventive spray, 500 ppm of active ingredient, evaluated 7-9 days after inoculation
Procedure: (§1) Solvent: 49 parts by weight of N,N-dimethylformamide Emulsifier: 1 part by weight of alkylaryl polyglycol ether To produce a suitable preparation of active compound, 1 part by weight of active compound is mixed with the stated amounts of solvent and emulsifier, and the concentrate is diluted with water to the desired concentration. To test for preventive activity, young plants are sprayed with a preparation of active compound at the stated rate of application. One day after this treatment, the plants are inoculated with an aqueous spore suspension of Leptosphaeria nodorum. The plants remain for 48 hours in an incubation cabinet at 22° C. and a relative atmospheric humidity of 100%. Then the plants are placed in a greenhouse at a temperature of approximately 22° C. and a relative atmospheric humidity of approximately 90%.

Botrytis cinerea = assay: In vivo preventive test on Botrytis cinerea (cucumber); conditions: preventive spray (DMF/alkylaryl polyglycol ether), 500 ppm of active ingredient, evaluated 5-6 days after inoculation
Procedure: (§2) Solvent: 49 parts by weight of N,N-dimethylformamide Emulsifier: 1 part by weight of alkylaryl polyglycol ether To produce a suitable preparation of active compound, 1 part by weight of active compound is mixed with the stated amounts of solvent and emulsifier, and the concentrate is diluted with water to the desired concentration. To test for preventive activity, young plants are sprayed with the preparation of active compound at the stated rate of application. One day after this treatment, the plants are inoculated with an aqueous spore suspension of Botrytis cinerea. The plants remain for two days in an incubation cabinet at approximately 22° C. and a relative atmospheric humidity of 100%. Then the plants are placed in an incubation cabinet at approximately 14° C. and a relative atmospheric humidity of 96%.

Pyrenophora teres = assay: In vivo preventive test on Pyrenophora teres (barley); conditions: preventive spray (DMF/alkylaryl polyglycol ether), 500 ppm of active ingredient, evaluated 7-9 days after inoculation
Procedure: as §1, with “sprayed with the preparation of” for “sprayed with a preparation of”, “suspension of Pyrenophora teres. The plants” for “suspension of Leptosphaeria nodorum. The plants”, “of approximately 20° C. and” for “of approximately 22° C. and”, “of approximately 80%.” for “of approximately 90%.”

Alternaria solani = assay: In vivo preventive test on Alternaria solani (tomato); conditions: preventive spray, 500 ppm of active ingredient, evaluated 7 days after inoculation
Procedure: as §2, with “Alternaria solani.” for “Botrytis cinerea.”, “one day” for “two days”, “20°” for “14°”

Alternaria brassicae = assay: In vivo preventive test on Alternaria brassicae (leaf spot on radish); conditions: preventive spray, 500 ppm of active ingredient, grading 6 days after contamination
Procedure: Radish plants (“Pernod Clair” variety), sown in starter cups on a 50/50 peat soil pozzolana substrate and grown at 17° C., are treated at the cotyledon stage by spraying with the active ingredient prepared as described above. Plants, used as controls, are treated with the mixture of acetone/tween/DMSO/water not containing the active material. After 24 hours, the plants are contaminated by spraying the cotyledons with an aqueous suspension of Alternaria brassicae spores (50 000 spores per mL). The spores are collected from a 15-day-old culture. The contaminated radish plants are incubated at 20° C. and at 100% relative humidity. Grading (% of efficacy) is carried out 6 days after the contamination, in comparison with the control plants.

Compound | Efficacy (Septoria tritici) | Efficacy (Sphaerotheca fuliginea) | Efficacy (Puccinia recondita) | Efficacy (Uromyces appendiculatus) | logP [1] | Efficacy (Leptosphaeria nodorum) | Efficacy (Botrytis cinerea) | Efficacy (Pyrenophora teres) | Efficacy (Alternaria solani) | Efficacy (Alternaria brassicae)
C[Si](C)(CNC(=O)c1cccnc1C(F)(F)F)c1ccccc1 [Example 2] | 100% | 83% | 88% | 100% | 2.92 | – | – | – | – | –
C[Si](C)(CN(C(=O)c1cccnc1C(F)F)C1CC1)c1cccc(Cl)c1 [Example 34] | – | – | – | – | 3.87 | 80% | 85% | 100% | 89% | –
C[Si](C)(CN(C(=O)c1cccnc1C(F)(F)F)C1CC1)c1cc(F)ccc1Cl [Example 48] | 93% | 98% | 88% | – | 4.34 | – | – | 97% | – | 75%
C[Si](C)(CN(C(=O)c1nccnc1C(F)(F)F)C1CC1)c1cccc2ccccc12 [Example 72] | – | – | – | – | 4.77 | 80% | – | 95% | 89% | –
CCc1ccccc1[Si](C)(C)CN(C(=O)c1cccnc1C(F)(F)F)C1CC1 [Example 20] | 93% | 100% | 88% | – | 4.51 | – | – | 100% | – | 75%
C[Si](C)(CN(C(=O)c1nccnc1C(F)(F)F)C1CC1)c1cccc(Cl)c1 [Example 32] | – | – | – | – | 4.56 | 90% | 94% | 95% | 89% | –
C[Si](C)(CN(C(=O)c1cccnc1C(F)F)C1CC1)c1cccc2ccccc12 [Example 74] | – | – | – | – | 4.04 | 70% | – | 95% | 78% | –
C[Si](C)(CN(C(=O)c1cccnc1Cl)C1CC1)c1cc(F)ccc1Cl [Example 50] | – | 98% | 75% | – | 3.99 | – | – | 97% | – | 75%
C[Si](C)(Cc1ccccc1)CN(C(=O)c1cccnc1C(F)F)C1CC1 [Example 92] | – | – | – | – | 3.80 | 80% | 98% | 90% | 78% | –
C[Si](C)(CN(C(=O)c1nccnc1C(F)(F)F)C1CC1)c1ccccc1F [Example 14] | 93% | 98% | 98% | 84% | 4.18 | – | – | 100% | – | 95%
CC[Si](C)(CN(C(=O)c1cccnc1C(F)F)C1CC1)c1ccccc1Cl (centres unmarked) [Example 36] | 90% | 94% | 81% | – | 4.21 | – | – | – | – | 90%
C[Si](C)(CN(C(=O)c1nccnc1C(F)(F)F)C1CC1)c1ccc2ccccc2c1 [Example 77] | – | – | – | – | 4.80 | 95% | 95% | 100% | 78% | –
C[Si](C)(Cc1ccccc1)CN(C(=O)c1nccnc1C(F)(F)F)C1CC1 [Example 93] | – | – | – | – | 4.44 | 80% | 100% | 70% | 75% | –
C[Si](C)(CN(C(=O)c1nccnc1C(F)(F)F)C1CC1)c1ccsc1 [Example 86] | – | – | – | – | 3.94 | – | 80% | 90% | 75% | –
C[Si](C)(CN(C(=O)c1nccnc1C(F)(F)F)C1CC1)c1ccccc1Cl [Example 26] | 100% | 93% | 92% | – | 4.56 | 80% | 99% | 95% | – | –
C[Si](C)(Cc1ccccc1Cl)CN(C(=O)c1nccnc1C(F)(F)F)C1CC1 [Example 99] | – | – | – | – | 4.82 | 70% | – | 70% | – | –
CC[Si](C)(CN(C(=O)c1nccnc1C(F)(F)F)C1CC1)c1ccccc1Cl (centres unmarked) [Example 44] | 86% | 94% | 75% | – | 4.95 | – | – | 93% | – | 75%
C[Si](C)(Cc1cccc(Cl)c1)CN(C(=O)c1nccnc1C(F)(F)F)C1CC1 [Example 105] | – | – | – | – | 4.82 | – | 93% | 70% | – | –
C[Si](C)(CN(C(=O)c1cccnc1C(F)F)C1CC1)c1ccc2ccccc2c1 [Example 79] | – | – | – | – | 4.11 | 90% | 70% | 95% | 89% | –

Reference: US9617286B2, “Fungicide N-[(trisubstitutedsilyl)methyl]-carboxamide derivatives” (BAYER INTELLECTUAL PROPERTY GMBH, priority 2011, dated 2017)
